# Results taken from patent publication US20260185054A1, “METHOD FOR PRODUCING METABOLICALLY ACTIVATED LIVER ORGANOID, COMPOSITION, AND METHOD FOR EVALUATING TEST SUBSTANCE” (JSR CORPORATION, priority 2023, published 2026).
# B1: prolactin: hormone from prolactin-secreting cells of the anterior pituitary; prolactin receptor agonist (PeproTech 100-07) (protein, UniProt P01236 29-227, looked up)
# Prolactin: LPICPGGAARCQVTLRDLFDRAVVLSHYIHNLSSEMFSEFDKRYTHGRGFITKAINSCHTSSLATPEDKEQAQQMNQKDFLSLIVSILRSWNEPLYHLVTEVRGMQEAPEAILSKAVEIEEQTKRLLEGMELIVSQVHPETKENEIYPVWSGLPSLQMADEESRLSAYYNLLHCLRRDSHKIDNYLKLLKCRIIHNNNC
# Experiments:
# Format in all cases: cell-based, human
# [1] = test system: liver organoid; assay: Gluconeogenesis of liver organoid (glucose quantified in medium supernatant, Glucose-Glo Assay); details: for gluconeogenesis of the liver organoid: glucose corrected by ATP, donor 9
# Method: Subsequently, the medium was replaced with a Gluconogenesis assay medium having the composition shown in Table 4 below (hereinafter sometimes referred to as a “GM medium”), and incubation was performed for 24 hours in an environment of 37° C., 1 atm, and a CO2 concentration of 5 v/v %. The supernatant of the medium after the incubation was collected, and glucose and urea included in the medium were quantified. The measurement results will be described later.
# The glucose was measured according to a protocol of the manufacturer using a Glucose-Glo™ Assay (Promega, catalog number: J6022). […]
# In addition, the liver organoid after the incubation were washed three times with Fasting Medium (hereinafter sometimes referred to as an “FM medium”) having the composition shown in Table 3, FM was added thereto at 500 μL/well, and incubation was performed for 18 hours in an environment of 37° C., 1 atm, and a CO2 concentration of 5 v/v %.
# Subsequently, the medium was replaced with a Gluconogenesis assay medium having the composition shown in Table 4 (hereinafter sometimes referred to as a “GM medium”), and incubation was performed for 24 hours in an environment of 37° C., 1 atm, and a CO2 concentration of 5 v/v %. The supernatant of the medium after the incubation was collected, and glucose and urea included in the medium were quantified. The quantification of glucose and urea was performed in the same manner as in Experimental Example 1. The measurement results will be described later.
# The medium of the liver organoid, which had been produced in the same manner as in Experimental Example 2 and expansion-cultured for 2 weeks, was replaced with a differentiation medium (hereinafter sometimes referred to as a “DM medium”) having the composition shown in Table 6 below at 500 μL/well, and incubated for 2 weeks in an environment of 37° C., 1 atm, and a CO2 concentration of 5 v/v %. The medium was replaced every 7 days.
# Subsequently, gluconeogenesis, urea production, albumin production, and bile acid production of the liver organoid were evaluated in the same manner as in Experimental Example 2. The results of the amount of glucose produced and the amount of urea produced will be described later.
# [2] = test system: gluconeogenesis-related genes, urea production-related genes and CYP genes in liver organoid; assay: Quantitative real-time PCR of liver organoids, A83-01 removed from differentiation medium; details: liver organoids cultured in DM medium from which A83-01 had been removed, versus DM medium
# Text: A liver organoid was produced in the same manner as in Experimental Example 3, except that the transforming growth factor β receptor antagonist (A83-01) was removed from the differentiation medium (DM medium), and the expression of the gluconeogenesis-related genes, the urea production-related genes, and the CYP genes was examined by quantitative real-time PCR.
# (§1) A total RNA was extracted from cells using Direct-zol RNA Kit micro (Zymo Research, catalog number: #R2063), and a reverse transcription reaction was carried out using a PrimeScript RT Master Mix (Takara Bio, catalog number: RR036A) to obtain a cDNA. Subsequently, quantitative real-time PCR was performed using LightCycler 480 System (Roche) and using TB Green Premix Ex Taq II (Takara Bio, catalog number: #RR820A). The cDNA of the primary human hepatocyte was diluted to create a calibration curve.
# [3] = test system: liver organoid; assay: Urea production of liver organoid (Quantichrom Urea Assay Kit); details: metformin 1 mM or 10 mM added to MM, FM and GM medium; organoid cultured in DM medium
# Method: The urea was measured according to a protocol of the manufacturer using Quantichrom Urea Assay Kit (Bioassay Systems, catalog number: DIUR-100).
# [4] = test system: gluconeogenesis-related genes (FBP1, PCK1) in liver organoid; assay: Quantitative real-time PCR of liver organoids, gluconeogenesis medium composition changed; details: 1 μM insulin in GM medium with 200 pg/mL glucagon and 400 ng/mL cortisol; FM 6 hours, GM 4 hours; donor 2
# Method: A GM medium obtained by removing glucagon and cortisol from the gluconeogenesis medium (GM medium) having the composition shown in Table 4, and further adding the components shown in Table 15 was prepared. Liver organoids were produced in the same manner as in Experimental Example 3, except that the incubation was performed for 6 hours after the addition of the FM medium and then the incubation was performed for 4 hours after the addition of the GM medium. In addition, the donor of the primary human hepatocyte used for the production of the liver organoid was a donor 2.
# as §1, with “Subsequently, the expression of various genes in each of the produced liver organoids was analyzed by quantitative real-time PCR (qPCR). Specifically, a total” for “A total”
# [5] = factor included in gluconeogenesis medium (Tables 17, 18)
# [6] = factor included in differentiation medium at varied concentrations (Tables 9, 10)
Molecule,"gluconeogenesis of the liver organoid [1, 5]","gluconeogenesis of the liver organoid [1, 6]",further results
glucagon: hormone that increases blood glucose level through glycogenolysis and gluconeogenesis in the liver (Sigma G2044),improved,,
Cc1cccc(-c2nn(C(=S)Nc3ccccc3)cc2-c2ccnc3ccccc23)n1 [A83-01],,,"expression of the gluconeogenesis-related genes, the urea production-related genes, and the CYP genes [2]: decreased"
"CN(C)C(=N)N=C(N)N [metformin, reference compound]",,,"urea production in the liver organoid [3]: suppressed; gluconeogenesis in the liver organoid ([1]; metformin 1 mM or 10 mM added to MM, FM and GM medium, organoid cultured in DM medium): suppressed"
"C[C@]12CCC(=O)C=C1CC[C@@H]1[C@@H]2[C@@H](O)C[C@@]2(C)[C@H]1CC[C@]2(O)C(=O)CO [cortisol, reference compound]",improved,improved in a manner dependent on the concentrations of added factors,
insulin: insulin added at 1 μM to the gluconeogenesis medium,,,expression of the gluconeogenesis-related genes [4]: suppresses
growth hormone: hormone secreted from the anterior pituitary; growth hormone receptor agonist (PeproTech 100-40),improved,improved in a manner dependent on the concentrations of added factors,
B1,improved,improved in a manner dependent on the concentrations of added factors,
